Experiments:
Assay type in all cases: cell-based, human
HeLa = test: Combination with bortezomib, cell death; conditions: 48 h post-treatment; BTZ 6 nM, compound 13 0.75 µM, alone or combined
184B5 = test: SRB antiproliferative/antigrowth assay, non-cancer cells; conditions: Homo sapiens, 184B5, 48 h, read-out: GI50 184B5
Procedure, shortened: (§1)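 Cells seeded 24 h before exposure to seven concentrations (100 µM to 0.0064 µM) for 48 h at 37 °C. Growth by TCA fixation and SRB staining, absorbance 515–564 nm, relative to time-zero and untreated controls; GI50 from variable-slope sigmoidal fit, reported as greater/less than range limits when not reached.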

MCF10A = test: as above
Procedure, shortened: as §1

[1] = system: Cdk1, Cdc25C, Wee1 in HeLa S3 cells; test: Western blot of G2-M-G1 regulators after nocodazole release; conditions: 10 µM
Method: To gain a better understanding about the molecular mechanism of compound 13 on antigrowth/cell-killing, HeLa S3 cells synchronized at G1/S by double thymidine treatment (DT) (Fig. 4b) were released into complete medium for 6 h, at which time most cells are at late S-G2/M phase (Fig. 4c). The cells were then maintained for additional 6 h in the absence (Fig. 4d) or presence of 10 μM compound 13 (Fig. 4e). More than 62% of cells progressed into G1 of the next cell cycle in the sham control (Fig. 4d). […] Since the level of securin is low, cell cycle is likely arrested prior to the chromatin separation stage in the presence of compound 13.
Figure 5 Compound 13-treated cells are arrested at prometa-metaphase through the inactivation of Cdk1. HeLa S3 cells were synchronized at G2/M phase by incubating in 50 ng/ml nocodazole (noco) for 18 h. The cells were then released into complete medium at time 0 h in the absence (Sham) or presence of 10 µM compound 13. Samples were then taken at the indicated times post-nocodazole. […] (b) Cdk1 may be inactivated by the combination of a high level of Wee1 kinase and inactivation of Cdc25C. The relative intensity of band signals are quantified by densitometry and presented the results in Supplementary Fig. S3.
Western blot and densitometry were carried out as we described previously[29],[30].

MDA-MB231 = test: SRB antiproliferative/antigrowth assay; conditions: Homo sapiens, MDA-MB-231, 48 h, read-out: GI50 MB231
Procedure, shortened: as §1

MCF7 = test: SRB antiproliferative/antigrowth assay
Procedure, shortened: as §1

MDA-MB468 = test: SRB antiproliferative/antigrowth assay; conditions: Homo sapiens, MDA-MB-468, 48 h, read-out: GI50 MB468
Procedure, shortened: as §1

MCF7 cells = test: Cell killing by flow cytometry, asynchronous cells; conditions: 2.7 μM, 48 h
Method: Asynchronous MCF7 cells were incubated for 48 h in the absence (Sham control) or presence of compound 13 at 2.7 or 8.0 µM.
Cells (2.0 × 10^6) were harvested by centrifugation at 1,000 rpm on a bench-top centrifuge for 5 min, followed by fixation with ice-cold ethanol (70%) for 30 min to overnight at −20 °C[13]. The ethanol was then removed by centrifugation, and cells were resuspended in 1 × PBS solution, followed by centrifuge. The cell pellet was than stained with propidium iodide (PI) master mix (100 μg/mL RNase A, 100 μg/mL PI, 0.3% Nonidet P-40 and 0.1% sodium citrate in distilled water) for 30 min at 37 °C. DNA content was measured using a Beckmann Coulter Cytomics FC500 (Beckman Coulter, Fullerton, CA), and the proportion of cell populations in G0/G1, S, and G2/M phases of cell cycle was calculated on the basis of DNA distribution histograms using CXP software.

Compound: O=[N+]([O-])c1ccc(S(=O)(=O)N2CCN(c3ccnc4cc(Cl)ccc34)CC2)c([N+](=O)[O-])c1 [Compound 13, 7-Chloro-4-(4-(2,4-dinitrophenylsulfonyl)piperazin-1-yl)quinoline]
- cell death (HeLa): neither 6 nM BTZ nor 0.75 µM of compound 13 resulted in substantial HeLa cell death
- GI50 (184B5): 9 ± 0.1 µM
- GI50 (MCF10A; Homo sapiens, MCF-10A, 48 h, read-out: GI50 MCF10A): 12.3 ± 0.1 µM
- higher concentration required for the same GI50 against non-cancer than cancer cells (MCF10A; MDA-MB468 vs MCF10A): up to 17.6 fold
- Cdc25C phosphatase activity status ([1]; 2–3 h post-nocodazole): almost completely inactive
- phosphorylation of Thr161 and Tyr15 on Cdk1 ([1]; 2–3 h post-nocodazole): highly phosphorylated
- Wee1 activity status ([1]; 3 h post-nocodazole): very active
- GI50 (MDA-MB231): 3.4 ± 0.1 µM
- GI50 (MCF7; Homo sapiens, MCF7, 48 h, read-out: GI50 MCF7): 2.3 ± 0.1 µM
- more effective than cisplatin (MCF7) (MCF7; ratio of GI50 values): 11.1 fold
- GI50 (MDA-MB468): 0.7 ± 0.1 µM
- cell killing (MCF7 cells): effectively killed MCF7 cells

Source: paper PMC6474902, “Examination of novel 4-aminoquinoline derivatives designed and synthesized by a hybrid pharmacophore approach to enhance their anticancer activities” (Scientific Reports, 2019)
